From patent US20070128217A1 (priority 2003, published 2007)

Experiments:
[1] = test system: antibodies in sera from SARS patients (sera 1a, 1b, 2, 6, 37, 62, London, SARS-yellow, SARS-green); format: binding, human; set-up: Binding of serum 6 to linear peptides of protein X1 of SARS-CoV Urbani / Binding of serum 37 to linear peptides of protein X1 of SARS-CoV Urbani / Binding of serum 6 to looped/cyclic peptide (PEPSCAN-ELISA) / Binding of serum 37 to looped/cyclic peptide (PEPSCAN-ELISA) / Binding of serum 37 to looped/cyclic peptides of protein X1 of SARS-CoV Urbani / Binding of serum 6 to linear peptides of protein X2 / Binding of serum 37 to linear peptides of protein X2 / Binding of serum 37 to looped/cyclic peptides of protein X2 of SARS-CoV Urbani / Binding of serum 6 to linear peptides of protein M of SARS-CoV Urbani / Binding of serum 37 to linear peptides of protein M of SARS-CoV Urbani / Binding of serum 6 to looped/cyclic peptides of protein M of SARS-CoV Urbani / Binding of serum 37 to looped/cyclic peptides of protein M of SARS-CoV Urbani / Binding of serum 6 to linear peptides of protein X3 of SARS-CoV Urbani / Binding of serum 37 to linear peptides of protein X3 of SARS-CoV Urbani / Binding of serum 37 to looped/cyclic peptides of protein X3 of SARS-CoV Urbani / Binding of serum 6 to linear peptides of protein X4 of SARS-CoV Urbani / Binding of serum 37 to linear peptides of protein X4 of SARS-CoV Urbani / Binding of serum 37 to looped/cyclic peptides of protein X4 of SARS-CoV Urbani / Binding of serum 6 to linear peptides of protein X5 of SARS-CoV Urbani / Binding of serum 37 to linear peptides of protein X5 of SARS-CoV Urbani / Binding of serum 37 to looped/cyclic peptides of protein X5 of SARS-CoV Urbani / Binding of serum 6 to linear peptides of protein N of SARS-CoV Urbani / Binding of serum 37 to linear peptides of protein N of SARS-CoV Urbani / Binding of serum 6 to linear peptide (PEPSCAN-ELISA) / Binding of serum 1a to looped/cyclic peptides of protein N of SARS-CoV Urbani / Binding of serum 1b to looped/cyclic peptides of protein N of SARS-CoV Urbani / Binding of serum 2 to looped/cyclic peptides of protein N of SARS-CoV Urbani / Binding of serum 6 to looped/cyclic peptides of protein N of SARS-CoV Urbani / Binding of serum 37 to looped/cyclic peptides of protein N of SARS-CoV Urbani / Binding of serum 62 to looped/cyclic peptides of protein N of SARS-CoV Urbani / Binding of serum London to looped/cyclic peptides of protein N of SARS-CoV Urbani / Binding of serum SARS-green to looped/cyclic peptides of protein N of SARS-CoV Urbani: unit not given here
[2] = test system: control sera (pooled serum of ten healthy LUMC hospital workers; commercial negative donor pooled serum from the Dutch bloodbank); format: binding, human; set-up: Binding of Control serum LUMC to linear peptides / Binding of Control serum Blood-bank to linear peptides / Binding of Control serum LUMC to looped peptides / Binding of Control Serum Blood-Bank to Looped peptides / Binding of Control serum LUMC to linear peptides of the protein M of SARS-CoV Urbani / Binding of Control serum Blood-bank to linear peptides of the protein M of SARS-CoV Urbani / Binding of Control serum LUMC to looped peptides of the protein M of SARS-CoV Urbani / Binding of Control Serum Blood-Bank to Looped peptides of the protein M of SARS-CoV Urbani: unit not given here
[3] = test system: rabbit serum obtained by immunizing a rabbit with the SARS-CoV strain Frankfurt 1; format: binding; set-up: Binding of a rabbit serum to linear peptides / Binding of a rabbit serum to looped peptides / Rabbit serum linear peptides / Rabbit serum looped peptides / Binding of a rabbit serum to linear peptides of protein N of SARS-CoV Urbani (Rabbit serum linear peptides) / Binding of a rabbit serum to looped/cyclic peptides of protein N of SARS-CoV Urbani (Rabbit serum looped peptides): unit not given here
[4] = test system: recombinant human anti-SARS-CoV antibody 03-018; format: binding; set-up: Binding of antibody 03-018 to linear peptides of the N protein of SARS-CoV Urbani / Binding of antibody 03-018 to looped/cyclic peptides of the N protein of SARS-CoV Urbani: unit not given here

Row | Sequence | Binding of Control Serum Blood-Bank to Looped peptides [2] | Binding of Control serum Blood-bank to linear peptides [2] | Binding of Control serum LUMC to linear peptides [2] | Binding of Control serum LUMC to looped peptides [2] | Binding of a rabbit serum to linear peptides of protein N of SARS-CoV Urbani (Rabbit serum linear peptides) [3] | Binding of a rabbit serum to looped/cyclic peptides of protein N of SARS-CoV Urbani (Rabbit serum looped peptides) [3] | Binding of antibody 03-018 to linear peptides of the N protein of SARS-CoV Urbani [4] | Binding of antibody 03-018 to looped/cyclic peptides of the N protein of SARS-CoV Urbani [4] | also measured
1 | ATEGALNTPKDHIGT | 0.5 | 0.8 | 0.7 | 0.5 | 0.1 | 0.1 | 0.1 | 0.2 | Binding of serum 1a to linear peptides of protein N of SARS-CoV Urbani [1]: 0.2; Binding of serum 1a to looped/cyclic peptides of protein N of SARS-CoV Urbani [1]: 0.3; Binding of serum 1b to linear peptides of protein N of SARS-CoV Urbani [1]: 0.1; Binding of serum 1b to looped/cyclic peptides of protein N of SARS-CoV Urbani [1]: 0.2; Binding of serum 2 to linear peptides of protein N of SARS-CoV Urbani [1]: 0.3; Binding of serum 2 to looped/cyclic peptides of protein N of SARS-CoV Urbani [1]: 0.4; Binding of serum 6 to linear peptides of protein N of SARS-CoV Urbani [1]: 0.1; Binding of serum 6 to looped/cyclic peptides of protein N of SARS-CoV Urbani [1]: 0.2; Binding of serum 37 to linear peptides of protein N of SARS-CoV Urbani [1]: 0.7; Binding of serum 37 to looped/cyclic peptides of protein N of SARS-CoV Urbani [1]: 0.4; Binding of serum 62 to linear peptides of protein N of SARS-CoV Urbani [1]: 0.7; Binding of serum 62 to looped/cyclic peptides of protein N of SARS-CoV Urbani [1]: 0.3; Binding of serum London to linear peptides of protein N of SARS-CoV Urbani [1]: 0.5; Binding of serum London to looped/cyclic peptides of protein N of SARS-CoV Urbani [1]: 0.3; Binding of serum SARS-green to linear peptides of protein N of SARS-CoV Urbani [1]: 0.4; Binding of serum SARS-green to looped/cyclic peptides of protein N of SARS-CoV Urbani [1]: 0.3; Binding of serum SARS-yellow to linear peptides of protein N of SARS-CoV Urbani [1]: 0.6; Binding of serum SARS-yellow to looped/cyclic peptides of protein N of SARS-CoV Urbani [1]: 0.2
2 | TKKSAAEASKKPRQK | 0.4 | 0.8 | 0.9 | 0.4 | 0.1 | 0.2 | 0.1 | 0.2 | Binding of serum 1a to looped/cyclic peptides of protein N of SARS-CoV Urbani [1]: 0.2; Binding of serum 1b to looped/cyclic peptides of protein N of SARS-CoV Urbani [1]: 0.1; Binding of serum 2 to looped/cyclic peptides of protein N of SARS-CoV Urbani [1]: 0.2; Binding of serum 6 to looped/cyclic peptides of protein N of SARS-CoV Urbani [1]: 0.1; Binding of serum 37 to looped/cyclic peptides of protein N of SARS-CoV Urbani [1]: 0.4; Binding of serum 62 to looped/cyclic peptides of protein N of SARS-CoV Urbani [1]: 0.3; Binding of serum London to looped/cyclic peptides of protein N of SARS-CoV Urbani [1]: 0.3; Binding of serum SARS-green to looped/cyclic peptides of protein N of SARS-CoV Urbani [1]: 0.0; Binding of serum SARS-yellow to looped/cyclic peptides of protein N of SARS-CoV Urbani [1]: 0.2; Recognition of the peptide by sera of SARS-CoV infected individuals, and form (linear, looped/cyclic) in which it is recognized [1]: recognized in linear form
3 | KPRQKRTATKQYNVT | 0.4 | 0.8 | 0.7 | 0.4 | 0.3 | 0.0 | 0.1 | 0.2 | –
4 | LQLPQGTTLPKGFYA | 0.5 | 1.0 | 0.8 | 0.5 | 0.2 | 1.0 | 0.1 | 0.2 | –
5 | NAATVLQLPQGTTLP | 0.6 | 0.7 | 0.5 | 0.4 | 0.2 | 0.0 | 0.1 | 0.2 | –
6 | PARMASGGGETALAL | 0.7 | 1.0 | 0.8 | 0.9 | 0.2 | 0.7 | 0.1 | 0.3 | –
7 | TATKQYNVTQAFGRR | 0.9 | 0.8 | 0.8 | 1.0 | – | – | 0.1 | 0.3 | Recognition of the peptide by the rabbit serum [3]: recognized
8 | RQKRTATKQYNVTQA | 0.9 | 0.9 | 0.8 | 0.8 | – | – | 0.1 | 0.2 | Recognition of the peptide by the rabbit serum [3]: recognized
9 | ASGGGETALALLLLD | 1.3 | 0.8 | 0.9 | 1.3 | 0.1 | 0.4 | 0.1 | 0.2 | –
10 | SPARMASGGGETALA | 0.1 | 0.9 | 0.8 | 0.2 | 0.2 | 0.0 | 0.1 | 0.1 | –
11 | GTTLPKGFYAEGSRG | 0.5 | 0.6 | 0.6 | 0.6 | 0.2 | 0.3 | 0.1 | 0.2 | –
12 | KLDDKDPQFKDNVIL | – | – | – | – | 0.1 | 0.2 | 0.1 | 0.2 | Control Serum Blood-Bank Looped peptides [2]: 0.7; Control serum Blood-bank linear peptides [2]: 0.8; Control serum LUMC linear peptides [2]: 0.7; Control serum LUMC looped peptides [2]: 0.8
